Data on four molecules can be found in patent US20100035882A1, “INHIBITION OF PDE2A” (priority 2006, published 2010).

“And” between values parts separate entries of the source, which are not always exact repeats. Equal values may be shown once. “Also recorded” adds a separate entry of the source.

The subject of test [1] is hypertrophy marker MYHCB in H9C2 rat cells. Kind of test: Relative expression of hypertrophy marker MYHCB in H9C2 rat cells after vasopressin ± BAY 60-7550 (real-time PCR). The format is cell-based. How it is done: FIG. 2: Relative expression of the hypertrophy marker MYHCB in H9C2 rat cells after stimulation by vasopressin±PDE2A inhibitor BAY 60-7550.
The expression of ANP and MYHCB relative to L32 ribosomal protein in H9C2 cells after incubation with vasopressin (0.1 micromol, 1 micromal, 10 micromol) for 72 h is shown. […] (Mean relative expression rE from a duplicate determination).
(§1) The relative expression of PDE2A in H9c2 rat cells is measured by quantifying the mRNA using the real-time polymerase chain reaction. Compared with conventional PCR, the real-time PCR has the advantage of more accurate quantification by introducing an additional, fluorescence-labeled oligonucleotide. This so-called probe contains at the 5′ end the fluorescent dye FAM (6-carboy-fluorescein) and at the 3′ end the fluorescence quencher TAMRA (6-carboxy-tetramethylrhodamine). During the polymerase chain reaction, the fluorescent dye FAM is cleaved off the probe by the 5′-exonuclease activity of the Taq polymerase in the TaqMan PCR, and thus the previously quenched fluorescence signal is obtained. The number of the cycle at which the fluorescence intensity is about 10 standard deviations above the background fluorescence is recorded as the so-called threshold [treshold cyle (Ct value)].
Total RNA is isolated from the H9c2 rat cardiomyocytes from a 6-well (about 4×10^5 cells) using an RNeasy Kit (Qiagen Hilden). 1 μg portions of total RNA per tissue are reacted with 1 unit of DNase I (from Invitrogen) at room temperature for 15 min to remove contamination by genomic DNA. The Dnase I is inactivated by adding 1 μl of EDTA (25 mM) and subsequent heating at 65° C. (10 min).
Subsequently, cDNA synthesis is carried out in the same reaction mixture in accordance with the instruction for the “SUPERSCRIPT-II RT cDNA synthesis kit” (from Invitrogen), and the reaction volume is made up to 200 μl with distilled water. For the PCR, 7.5 μl of primer and probe mixture and 12.5 μl of TaqMan reaction solution (qPCR Mastermix, from Eurogentec) are added to 5 μl portions of the diluted cDNA solution. The final concentration of the primers is 300 nM in each case, and that of the probe is 150 nM. The sequence of the forward and reverse primer for the rat PDE2A is: 5′-[…]-3′ (SEQ ID NO: 3) and 5′-[…]-3′ (SEQ ID NO: 4), and the sequence of the fluorescent probe is 5′-6FAM-[…]-TAMRA-3′ (SEQ ID NO: 5). The sequence of the forward and reverse primer for r-MYHCB is: 5′-[…]-3′ (SEQ ID NO: 6) and 5′-[…]-3′ (SEQ ID NO: 7), and the sequence of the fluorescent probe is 5′-6FAM-[…]-TAMRA-3′ (SEQ ID NO: 8).
The PCR takes place on an ABI Prism SDS-7700 apparatus (from Applied Biosystems) in accordance with the manufacturer's instructions. 40 cycles are carried out in this case. The Ct (see above) which is obtained for the respective gene in the relevant cDNA corresponds to the cycle in which the fluorescence intensity of the liberated probe is about 10 standard deviations above the background signal. A lower Ct value thus means an earlier start of amplification, i.e. the original sample contains more mRNA. To compensate for any variations in the cDNA synthesis, the expression of a so-called “housekeeping gene”, which should always be expressed to the same extent irrespective of the treatment of the cells, is also analyzed in all the investigated samples. L32 ribosomal protein is used to standardize PDE2A expression in H9c2 cells. The sequence of the forward and reverse primer for rat L32 is 5′-[…]-3′ (SEQ ID NO: 9), and 5′-[…]-3′ (SEQ ID NO: 10), and the sequence of the probe is 5′-6FAM-[…]-TAMRA-3′ (SEQ ID NO: 11). The data are analyzed in the following way: the dCt value is calculated for each RNA. The dCt value is the difference between the Ct values for the candidate gene (i.e.: MYHCB or PDE2A) and the Ct value of the housekeeping gene in the respective tissue. […]

For test [2], the system named is intracellular cGMP in H9c2 rat cardiomyocytes. Kind of test: Intracellular cGMP content in H9c2 cells after ANP stimulation (EIA). The format is cell-based. The following applies: 15 min, FIG. 3. The method, then: (§2) In order to verify that incubation of H9c2 cells with the PDE2A inhibitor BAY 60-7550 also leads to an increase in the intracellular cGMP level and thus has an antihypertrophic effect, the intracellular cGMP content was determined by EIA after stimulation of cGMP synthesis by ANP in the presence of the PDE2A inhibitor BAY 60-7550. […] To verify the in vitro findings, the antihypertrophic effect of the PDE2 inhibitor BAY 60-7550 was investigated in vivo in a mouse hypertrophy model. For this purpose, mice of the C57BL6 strain received subcutaneous administration of 2 mg/kg isoprenaline once a day and, as positive control, 10 mg/kg enalapril administered via the drinking water in addition to the isoprenaline.
FIG. 3: Change in the intracellular cGMP concentration in H9c2 rat cardiomyocytes after stimulation with ANP in the presence of various concentrations of the PDE2A inhibitor BAY 60-7550. The cGMP content in the cells after incubation with ANP and the stated dosages of the PDE2A inhibitor BAY 60-7550 for 15 min is shown.
Determination of the cGMP Content in H9c2 Cells after Preincubation with the PDE2A Inhibitor BAY 60-7550
The intracellular cGMP content in H9c2 cells was determined with the Biotrak (EIA) Immunoassay from Amersham (catalog No. RPN 226) in accordance with the manufacturer's protocol. […] The fluorescence is measured at 450/570 nm in a Tecan Spectrafluor photometer. […]

In test [3] the test system is mice (C57b1/6 strain), isoprenaline-induced cardiac hypertrophy. Kind of test: Mouse isoprenaline hypertrophy model, heart weight/body weight ratio. The format is in vivo. Conditions: for Effect on heart weight:body weight ratio (HW:BW) (in words): with isoprenaline 2 mg/kg/d s.c. How it is done: as §2
FIG. 4: Alteration in the heart weight compared with the body weight (HW:BW) by subcutaneous administration of isoprenaline (2 mg/kg/d) and the influence of enalapril as positive control […] in the drinking water) and of the PDE2A inhibitor BAY 60-7550. The heart weight:body weight ratio as a function of the treatment is shown.
Assay of PDE2A inhibitors for anti-hypertrophic effect in vivo:
The antihypertrophic effect of the PDE2A inhibitor BAY 60-7550 is assayed by using the so-called mouse isoprenaline model [ ]. This involves 8 mice (C57b1/6 strain) per dose group receiving subcutaneous administration of isoprenaline at a dose of 2 mg/kg/d for 5 days, while the control group receives a saline solution as vehicle control. As positive control, in addition to the isoprenaline, the ACE inhibitor enalapril was administered in a dose of 10 mg/kg/d via the drinking water to one group, while two further groups received in addition to the isoprenaline the PDE2A inhibitor BAY 60-7550 administered intraperitoneally with a dose of 10 mg/kg/d. As a measure of the degree of cardiac hypertrophy, the heart weight/body weight (HW:BW) ratio is determined after 5 d, and the relation of the effect of the substances to the effect of isoprenaline is found.

Test [4] concerns PDE2A-mRNA in H9c2 rat cardiomyocytes. Kind of test: Relative expression of PDE2A-RNA in H9c2 cells after arginine-vasopressin (real-time PCR). The format is cell-based. Conditions: Vasopressin 1 μM, 72 h, triplicate mean, control 159.73.
Description: For this purpose, the rat cardiomyocyte cell line H9c2 (ATCC number: CRL-1446) was exposed to a hypertrophic stimulus by arginine-vasopressin which is expressed inter alia in an increased expressed of marker genes for cardiac hypertrophy such as ANP (atrial natriuretic peptide) and MYHCB (myosin heavy chain beta-subunit). An increased expression of the cGMP-hydrolyzing PDE2A is able to reduce the intracellular cGMP level of the cardiomyocytes and thus suppress the antihypertrophic effect of cGMP [3,4]. […]
as §1, with “value)]. […]” for “value)].”

As for `COc1ccc(Cc2nn3c(C(CCCc4ccccc4)C(C)O)nc(C)c3c(=O)[nH]2)cc1OC` (stereo not shown) [BAY 60-7550, 2-(3,4-dimethoxybenzyl)-7-[1-(1-hydroxyethyl)-4-phenylbutyl]-5-methylimidazo[5,1-f][1,2,4]triazin-4(3H)-one], in test [1] (H9c2 cells, vasopressin stimulation, FIG. 2), the “Effect on vasopressin-induced increase of hypertrophy marker gene MYHCB (in words)” value is recorded as “dose-dependently suppresses the induction of the hypertrophy marker MYHCB by vasopressin; also recorded: dose-dependent suppression of the increase in the hypertrophy marker gene MYHCB”. In addition, the “rE (expression of MYHCB relative to L32)” value in test [1] (Vasopressin 1 μM + 0.1 μM BAY 60-7550, 72 h) was 9.00 and 15.89; in test [1] (Vasopressin 1 μM + 10 μM BAY 60-7550, 72 h) it was 4.56 and 3.01. Also, the “MW (mean rE of MYHCB)” value was determined as 12.44 in test [1] (Vasopressin 1 μM + 0.1 μM BAY 60-7550, duplicate mean, vasopressin alone 17.23); 8.54 in test [1] (Vasopressin 1 μM + 1 μM BAY 60-7550, duplicate mean, vasopressin alone 17.23); 3.79 in test [1] (Vasopressin 1 μM + 10 μM BAY 60-7550, duplicate mean, vasopressin alone 17.23). For the same molecule, in test [2], the “Effect on intracellular cGMP content (in words)” value is “dose-dependently and synergistically increases the intracellular cGMP level; also recorded: dose-dependently increases the intracellular cGMP content”. In test [3] (BAY 60-7550 10 mg/kg i.p., 5 days, two groups, FIG. 4), the “Effect on heart weight:body weight ratio (HW:BW) (in words)” value is “able to suppress the isoprenaline-induced increase in heart weight almost as well as the positive control enalapril; also recorded: marked reduction in the ratio of the weight of the heart to the body weight”.

Regarding `NC(=O)CC[C@@H]1NC(=O)[C@H](Cc2ccccc2)NC(=O)[C@H](Cc2ccc(O)cc2)NC(=O)[C@@H](N)CSSC[C@@H](C(=O)N2CCC[C@H]2C(=O)N[C@@H](CCCN=C(N)N)C(=O)NCC(N)=O)NC(=O)[C@H](CC(N)=O)NC1=O` [Vasopressin, arginine-vasopressin, reference compound], the “MW (mean rE of PDE2A)” value in test [4] is recorded as 613.64. Besides, the “rE (expression of MYHCB relative to L32)” value in test [1] (Vasopressin 1 μM alone, 72 h, H9C2 cells) was 19.43 and 15.03. Moreover, the “MW (mean rE of MYHCB)” value in test [1] (Vasopressin 1 μM alone, 72 h, duplicate mean, control 0.50) worked out at 17.23.

As to `CCOC(=O)[C@H](CCc1ccccc1)N[C@@H](C)C(=O)N1CCC[C@H]1C(=O)O` [enalapril, reference compound], the “Effect on heart weight:body weight ratio (HW:BW) (in words)” value in test [3] (enalapril 10 mg/kg via drinking water, positive control) was “marked reduction in the ratio of the weight of the heart to the body weight”.

Turning to `CC(C)NCC(O)c1ccc(O)c(O)c1` (stereo not shown) [isoprenaline, reference compound], the “Effect on heart weight in relation to body weight (in words)” value in test [3] (isoprenaline 2 mg/kg/d s.c. alone, hypertrophic stimulus) was “increases the weight of the animal's heart in relation to the body weight”.
